Among the test systems are EKVX NSCLC; SK-MEL-2 melanoma; UACC-62 melanoma; TK-10 renal; NCI-H23 lung; OVCAR-8 ovarian; ACHN renal; DU-145 prostate; UACC-257 melanoma; COLO 205 colon.
What all share (assay): NCI-60 cell line screen, 48 h

Where “and” joins values, the source holds several entries; their conditions need not be identical. Equal values may be shown once.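 Step 1: Grow cells in 96-well plates. Step 2: Expose to compound for 48 hours at 5 concentrations. Step 3: Interpolate endpoints linearly; if unreached, use highest concentration. GI50: concentration for 50% inhibition of growth. TGI marks complete inhibition of growth.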 A value given as a limit tells only on which side of the number the result lay.

Turning to `CCN(CCCN(C)C)Cc1cc(I)cc(C)c1O`, the GI50 was 26.5 µM with EKVX NSCLC; 19.4 µM in the assay with SK-MEL-2 melanoma; 16.4 µM in the assay on UACC-62 melanoma; 4.85 µM in the assay on TK-10 renal; 97.2 µM in the assay with NCI-H23 lung; 34.2 µM with OVCAR-8 ovarian. The GI50 in the assay with ACHN renal was 24.9 µM; with DU-145 prostate it was 36.8 µM; with UACC-257 melanoma, 16.3 µM; in the assay with COLO 205 colon, 18.9 µM. Besides, the TGI with EKVX NSCLC is over 100 µM; in the assay with SK-MEL-2 melanoma, 37.4 µM; in the assay with UACC-62 melanoma it was 37.1 µM; with TK-10 renal, 22.6 µM; in the assay on NCI-H23 lung it was over 100 µM; in the assay on OVCAR-8 ovarian, over 100 µM. For the same compound, the TGI in the assay on ACHN renal is 58.6 µM; in the assay with DU-145 prostate, over 100 µM; with UACC-257 melanoma, 32.5 µM; in the assay on COLO 205 colon, 36.8 µM.
On to `CN(c1ncccc1CNc1nc(Nc2ccc3c(c2)CC(=O)N3)ncc1C(F)(F)F)S(C)(=O)=O`, for which the GI50 is 1.84 µM and 2.64 µM in the assay with EKVX NSCLC; 1.57 µM and 1.85 µM with SK-MEL-2 melanoma; 1.4 µM in the assay with UACC-62 melanoma; 1.87 µM and 1.75 µM with TK-10 renal; 1.79 µM and 2.16 µM in the assay on NCI-H23 lung; 2.41 µM and 3.38 µM in the assay on OVCAR-8 ovarian. In addition, the GI50 with ACHN renal was 2.72 µM and 3.31 µM; in the assay with DU-145 prostate, 2.88 µM and 2.74 µM; in the assay on UACC-257 melanoma, 1.6 µM and 2.24 µM; in the assay on COLO 205 colon, 0.601 µM and 1.11 µM. Also, the TGI in the assay on EKVX NSCLC was 8.23 µM and > 10 µM; in the assay with SK-MEL-2 melanoma, 3.69 µM and 4.8 µM; with UACC-62 melanoma it was 3.62 µM; in the assay on TK-10 renal, 7.82 µM and > 10 µM; in the assay with NCI-H23 lung, 4.88 µM and 6.35 µM; in the assay with OVCAR-8 ovarian, over 64.6 µM. Further, the TGI in the assay on ACHN renal is over 100 µM; with DU-145 prostate, over 100 µM; with UACC-257 melanoma, 5.54 µM and 8.76 µM; in the assay with COLO 205 colon it was 2.08 µM and 3.03 µM.
For the compound `COc1ccc2c(c1OC)C[C@@H]1c3c(cc4c(c3-2)OCO4)CCN1C`, the TGI with EKVX NSCLC was over 100 µM; in the assay with SK-MEL-2 melanoma, 88.7 µM; with UACC-62 melanoma it was 43.8 µM; in the assay on TK-10 renal, 74.6 µM; in the assay with NCI-H23 lung, over 100 µM; in the assay on OVCAR-8 ovarian it was over 100 µM. For the same compound, the TGI is over 100 µM in the assay on ACHN renal, over 100 µM in the assay on DU-145 prostate, 61 µM in the assay with UACC-257 melanoma and 40.3 µM in the assay with COLO 205 colon.
Regarding `COc1ccc(C2CC(c3cccc(Nc4ccnc5cc(Cl)ccc45)c3)=NN2C=O)cc1` (stereo not given), the GI50 in the assay with EKVX NSCLC was 1.19 µM; in the assay with SK-MEL-2 melanoma it was 0.457 µM; with UACC-62 melanoma, 0.532 µM; in the assay with TK-10 renal it was 0.882 µM; with NCI-H23 lung it was 0.967 µM; with OVCAR-8 ovarian, 1.12 µM. The GI50 with ACHN renal is 0.867 µM; with DU-145 prostate, 0.978 µM; in the assay with UACC-257 melanoma it was 0.677 µM; in the assay with COLO 205 colon, 0.484 µM. For the same compound, the TGI in the assay on EKVX NSCLC was over 100 µM; with SK-MEL-2 melanoma it was 6.41 µM; in the assay on UACC-62 melanoma it was 54.8 µM; in the assay with TK-10 renal it was 7.86 µM; with NCI-H23 lung it was over 81.6 µM; in the assay on OVCAR-8 ovarian, over 100 µM. For the same compound, the TGI with ACHN renal is over 100 µM; in the assay with DU-145 prostate, over 34.9 µM; in the assay with UACC-257 melanoma it was 34.8 µM; with COLO 205 colon, 2.95 µM.
As for `COc1cc(Nc2nc3cc(N)cc(N)c3nc2-c2ccccc2)cc(OC)c1OC`, the GI50 with EKVX NSCLC was 17.6 µM; in the assay with SK-MEL-2 melanoma, 15.9 µM; in the assay on UACC-62 melanoma it was 13.6 µM; in the assay on TK-10 renal, 23.9 µM; in the assay with NCI-H23 lung, 24.9 µM; in the assay on OVCAR-8 ovarian, 15.3 µM. The GI50 in the assay on ACHN renal is 16.7 µM; with DU-145 prostate, 21.9 µM; in the assay on UACC-257 melanoma, 29.6 µM; with COLO 205 colon it was 14 µM. Further, the TGI was determined as 47.4 µM with EKVX NSCLC; 35.2 µM with SK-MEL-2 melanoma; 31.8 µM in the assay with UACC-62 melanoma; 66.5 µM in the assay on TK-10 renal; 76.7 µM in the assay with NCI-H23 lung; 34.9 µM with OVCAR-8 ovarian. Further, the TGI is 43 µM in the assay on ACHN renal, 74 µM with DU-145 prostate, over 100 µM in the assay on UACC-257 melanoma and 27.1 µM in the assay on COLO 205 colon.
In the case of `Fc1cccc(COc2ccc(Nc3ncnc4sc(-c5cccs5)cc34)cc2Cl)c1`, the GI50 in the assay on EKVX NSCLC was 4.74 µM; in the assay with SK-MEL-2 melanoma it was 2.46 µM; in the assay on UACC-62 melanoma, 1.59 µM; in the assay with TK-10 renal it was 4.76 µM; with NCI-H23 lung it was over 13.6 µM; in the assay on OVCAR-8 ovarian it was 5.5 µM. Moreover, the GI50 in the assay with ACHN renal is 3.24 µM; in the assay with DU-145 prostate it was 11.1 µM; in the assay on UACC-257 melanoma, 1.42 µM; with COLO 205 colon, 1.42 µM. For the same compound, the TGI with EKVX NSCLC is over 20.4 µM; in the assay on SK-MEL-2 melanoma, 8.83 µM; in the assay on UACC-62 melanoma it was 5.71 µM; in the assay on TK-10 renal it was 10.8 µM; in the assay on NCI-H23 lung, over 25 µM; with OVCAR-8 ovarian, over 17.4 µM. For the same compound, the TGI in the assay on ACHN renal was 7.24 µM; in the assay on DU-145 prostate, over 17.7 µM; in the assay with UACC-257 melanoma, over 14 µM; in the assay on COLO 205 colon, 10.5 µM.
For `CCN(CC)c1ccc(/C=N/NC(=O)CSc2nc3ccccc3c(=O)n2CCc2ccc(S(N)(=O)=O)cc2)c(O)c1`, the GI50 with EKVX NSCLC was 1.42 µM; in the assay on SK-MEL-2 melanoma, 4.34 µM; with UACC-62 melanoma, 1.73 µM; in the assay on TK-10 renal, 5.71 µM; in the assay on NCI-H23 lung, 2.99 µM; with OVCAR-8 ovarian, 1.03 µM. Also, the GI50 with ACHN renal was 1.75 µM; in the assay with DU-145 prostate, 1.82 µM; in the assay with UACC-257 melanoma it was 3.25 µM; with COLO 205 colon, 3.22 µM. Also, the TGI was over 100 µM with EKVX NSCLC; over 100 µM with SK-MEL-2 melanoma; 6.37 µM in the assay on UACC-62 melanoma; over 100 µM in the assay on TK-10 renal; over 100 µM with NCI-H23 lung; over 100 µM in the assay on OVCAR-8 ovarian. In addition, the TGI in the assay on ACHN renal was over 100 µM; in the assay on DU-145 prostate, over 100 µM; in the assay with UACC-257 melanoma, 69.1 µM; in the assay on COLO 205 colon it was over 100 µM.
